Source: patent US20080242683A1, “Organic Compounds” (priority 2005, published 2008)
Counter-ions that a name gives are not always drawn.

Biological target: adenosine A2A receptor (Homo sapiens, UniProt P29274)
Assay: adenosine A2A receptor agonist assay (method of Murphree et al.)
Assay type: binding
Conditions: Mol Pharmacol 61, 455-462 (2002)
From the text: Compounds of formula (I) and their pharmaceutically acceptable salts are useful as pharmaceuticals. In particular, they activate the adenosine A2A receptor, i.e., they act as A2A receptor agonists.

adenosine A2A receptor, sequence (P29274 whole entry): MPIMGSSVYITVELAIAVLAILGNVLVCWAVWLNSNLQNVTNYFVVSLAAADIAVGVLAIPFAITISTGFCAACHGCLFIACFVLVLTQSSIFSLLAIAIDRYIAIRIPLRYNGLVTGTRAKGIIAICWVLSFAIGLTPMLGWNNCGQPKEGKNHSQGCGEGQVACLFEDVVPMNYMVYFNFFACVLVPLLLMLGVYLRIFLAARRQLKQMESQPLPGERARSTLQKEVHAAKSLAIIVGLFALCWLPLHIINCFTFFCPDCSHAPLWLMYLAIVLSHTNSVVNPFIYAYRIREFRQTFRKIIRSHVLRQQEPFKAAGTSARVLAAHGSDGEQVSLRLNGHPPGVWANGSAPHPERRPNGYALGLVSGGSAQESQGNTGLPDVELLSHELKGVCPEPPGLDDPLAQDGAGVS

Ki [nM]	Compound
610	OC[C@H]1O[C@@H](n2cnc3c(NCC(c4ccccc4)c4ccccc4)nc(N4CC[C@H](c5ccc(F)cc5)C4)nc32)[C@H](O)[C@@H]1O [Example 2, (2R,3R,4S,5R)-2-{6-(2,2-diphenyl-ethylamino)-2-[(R)-3-(4-fluoro-phenyl)-pyrrolidin-1-yl]-purin-9-yl}-5-hydroxymethyl-tetrahydro-furan-3,4-diol trifluoroacetate]
190	N[C@@H]1CCN(c2nc(NCC(c3ccccc3)c3ccccc3)c3ncn([C@@H]4O[C@H](CO)[C@@H](O)[C@H]4O)c3n2)C1 [Example 7, (2R,3R,4S,5R)-2-[2-((R)-3-Amino-pyrrolidin-1-yl)-6-(2,2-diphenyl-ethylamino)-purin-9-yl]-5-hydroxymethyl-tetrahydro-furan-3,4-diol trifluoroacetate]
160	O=C(NC1CCN(c2ccccn2)CC1)N[C@@H]1CCN(c2nc(NCC(c3ccccc3)c3ccccc3)c3ncn([C@@H]4O[C@H](CO)[C@@H](O)[C@H]4O)c3n2)C1 [Example 9, 1-{(R)-1-[9-((2R,3R,4S,5R)-3,4-Dihydroxy-5-hydroxymethyl-tetrahydro-furan-2-yl)-6-(2,2-diphenyl-ethylamino)-9H-purin-2-yl]-pyrrolidin-3-yl}-3-(3,4,5,6-tetrahydro-2H-[1,2′]bipyridinyl-4-yl)-urea trifluoroacetate]
12	O=C(N[C@@H]1CCNC1)N[C@@H]1CCN(c2nc(NCC(c3ccccc3)c3ccccc3)c3ncn([C@@H]4O[C@H](CO)[C@@H](O)[C@H]4O)c3n2)C1 [Example 11, 1-{(R)-1-[9-((2R,3R,4S,5R)-3,4-Dihydroxy-5-hydroxymethyl-tetrahydro-furan-2-yl)-6-(2,2-diphenyl-ethylamino)-9H-purin-2-yl]-pyrrolidin-3-yl}-3-(R)-pyrrolidin-3-yl-urea trifluoroacetate]
54	OC[C@H]1O[C@@H](n2cnc3c(NCC(c4ccccc4)c4ccccc4)nc(N4CC[C@@H](O)C4)nc32)[C@H](O)[C@@H]1O [Example 13, (2R,3R,4S,5R)-2-[6-(2,2-diphenyl-ethylamino)-2-((R)-3-hydroxy-pyrrolidin-1-yl)-purin-9-yl]-5-hydroxymethyl-tetrahydro-furan-3,4-diol]
0.5	CN(C)[C@@H]1CCN(c2nc(NCC(c3ccccc3)c3ccccc3)c3ncn([C@@H]4O[C@H](CO)[C@@H](O)[C@H]4O)c3n2)C1 [Example 22, (2R,3R,4S,5R)-2-[2-((R)-3-dimethylamino-pyrrolidin-1-yl)-6-(2,2-diphenyl-ethylamino)-purin-9-yl]-5-hydroxymethyl-tetrahydro-furan-3,4-diol trifluoroacetate]
59	O=C(N[C@@H]1CCN(C(=O)NC2CCN(C(=O)OCc3ccccc3)CC2)C1)N[C@@H]1CCN(c2nc(NCC(c3ccccc3)c3ccccc3)c3ncn([C@@H]4O[C@H](CO)[C@@H](O)[C@H]4O)c3n2)C1 [Example 24, 4-{[(R)-3-(3-{(R)-1-[9-((2R,3R,4S,5R)-3,4-Dihydroxy-5-hydroxymethyl-tetrahydro-furan-2-yl)-6-(2,2-diphenyl-ethylamino)-9H-purin-2-yl]-pyrrolidine-3-yl}-ureido)-pyrrolidine-1-carbonyl]-amino}-piperidine-1-carboxylic acid benzyl ester trifluoroacetate]
2	CCc1cc([C@H]2O[C@@H](n3cnc4c(N[C@H](CO)Cc5ccccc5)nc(N5CC[C@@H](N6CCCC6)C5)nc43)[C@H](O)[C@@H]2O)on1 [Example 65, (2R,3R,4S,5S)-2-[(R)-2-[1,3′]Bipyrrolidinyl-1′-yl-6-((S)-1-hydroxymethyl-2-phenyl-ethylamino)-purin-9-yl]-5-(3-ethyl-isoxazol-5-yl)-tetrahydro-furan-3,4-diol]
6	CCn1nnc(C2OC(n3cnc4c(NCC(c5ccc(O)cc5)c5ccc(O)cc5)nc(N5CCC(NC(=O)c6ccc(N7CCOCC7)nc6)C5)nc43)C(O)C2O)n1 [Example 77, N—((R)-1-{6-[2,2-bis-(4-Hydroxy-phenyl)-ethylamino]-g-[(2R,3R,4S,5R)-5-(2-ethyl-2H-tetrazol-5-yl)-3,4-dihydroxy-tetrahydro-furan-2-yl]-9H-purin-2-yl}-pyrrolidin-3-yl)-6-morpholin-4-yl-nicotinamide trifluoroacetate]
5	CCn1nnc([C@H]2O[C@@H](n3cnc4c(NCCc5ccc(S(N)(=O)=O)cc5)nc(N5CC[C@@H](NC(=O)N[C@@H]6CCNC6)C5)nc43)[C@H](O)[C@@H]2O)n1 [Example 108, 4-(2-{9-[(2R,3R,4S,5R)-5-(2-Ethyl-2H-tetrazol-5-yl)-3,4-dihydroxy-tetrahydro-furan-2-yl]-2-[(R)-3-((R)-3-pyrrolidin-3-ylureido)-pyrrolidin-1-yl]-9H-purin-6-ylamino}-ethyl)-benzenesulfonamide trifluoroacetate]
4	CCn1nnc([C@H]2O[C@@H](n3cnc4c(NCC(c5ccccc5)c5ccccc5)nc(N5CC[C@@H](NC(=NCc6ccccn6)NC#N)C5)nc43)[C@H](O)[C@@H]2O)n1 [Example 122, N—((R)-1-{6-(2,2-Diphenyl-ethylamino)-9-[(2R,3R,4S,5R)-5-(2-ethyl-2H-tetrazol-5-yl)-3,4-dihydroxy-tetrahydro-furan-2-yl]-9H-purin-2-yl}-pyrrolidin-3-yl)-N′-cyano-N″-pyridin-2-ylmethyl-guanidine]
